# Reference: patent publication US20090041719A1, “Method for screening therapeutic agent for glomerular disorder” (priority 2006, published 2009)
# “And” between values parts separate entries of the source, which are not always exact repeats. Equal entries are not always repeated.
# Assays:
# [1] = tested on: glomerular lesions; renal tubulointerstitial lesions; settings: International Publication WO 2004/024185 and 01/72730 pamphlets; cited from earlier work
# [2] = tested on: rat unilateral ureteral obstruction release model; experiment: Rat unilateral ureteral obstruction release model: glomerular and tubulointerstitial lesions, Asc-1+ cells; format: in vivo, SD rat; settings: for Improvement of glomerular lesion: Yes = lesioned glomeruli per 50 glomeruli reduced to less than or equal to half the control average; for Improvement of tubulointerstitial lesion: Yes = reduced to less than or equal to half the control average;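 for Tubulointerstitial lesion: atrophy of tubules associated with dilatation of tubules (score): ± very light + light ++ moderate +++ high change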;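 for Tubulointerstitial lesion: fibrosis of interstitial tissue (score): ± very light + light ++ moderate +++ high change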;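 for Tubulointerstitial lesion: thickness of basement membrane (score): ± very light + light ++ moderate +++ high change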
# Source text: An experimental model was produced in accordance with the method devised and established by Ishibashi (Michio Ishibasi et al., Japanese Journal of Nephrology 42: 248, 2000), using a 8 to 9-week-old male SD rat weighing about 280 g. […] On day 14 after obstruction, the obstruction was released, and the urinary tract was reconstructed using a cuff. That is, 14 days later, the ligated ureteral obstruction part was partially removed, and a 25 gauge polyethylene tube (made by Nippon Sherwood) as a cuff was inserted from the lower normal ureteral stump and placed in the lumen. Next, the cuff was placed also in the expanded upper ureter, and both parts were ligated for fixation with a 7-0 nylon suture to reconstruct the urinary tract. At the same time, the right kidney was removed. The weight was measured after obstruction release, and the blood was collected on days 2, 5, and 7 after release for serum creatinine determination. On day 7, the rat was sacrificed under anesthesia and the left obstruction release kidney was removed. The weight of the removed kidney was measured, and the kidney pathomorphological examination was performed.
# The biological effects of the test compound were studied in vivo using the model obtained in the above procedure 1). The test compound in the form of bulk powder was dissolved in sterilized physiologic saline together with gum arabic, where the concentration of the gum arabic was adjusted to 5% and the concentration of the test compound was adjusted to 30 mg/ml. The amount of 30 mg/kg was subcutaneously administered every day. Daily administration was continued for 21 days during 14 days of obstruction and 7 days after obstruction release. For controlled comparison, the solvent of 5% gum arabic was administered alone.
# On day 22 from the administration of the test compound, the rat was sacrificed under anesthesia, and the left obstruction release kidney was removed and neutral formalin fixed. The fixed renal tissue embedded in paraffin was sliced into 4-micrometer-thick pieces for examination.
# The tissue section was observed under a microscope in order to count the number of glomeruli and the number of glomeruli having a lesion (expansion of a tubular pole associated with swollen Bowman's capsule epithelial cells or hypertrophy of a Bowman's capsule basal membrane) in the field of view, and the number of glomeruli having the lesion (referred to as “lesioned glomerulus”) per 50 glomeruli was calculated.
# As for the effectiveness to improve of glomerular lesions, when the number of lesioned glomeruli per 50 glomeruli was reduced to less than or equal to half the average number of those of the control group, it was determined as improved.
# An affinity-purified anti-rat Asc-1 polyclonal antibody (rabbit) was prepared as follows: that is, in order to prepare an anti-Asc-1 peptide polyclonal antibody (rabbit), an oligopeptide (PSPLPITDKPLKTQC (SEQ. ID NO: 4)) corresponding to amino acid residues of 517-530 of Asc-1 was synthesized (see J Biol Chem (2000); 275: 9690-9698), keyhole limpet hemocyanine was bound to the C-terminal cysteine as an adjuvant, and […] was immunized therewith. The serum was collected on days 7 and 14 from the immunization. The serum was concentrated by means of an adsorption-dissociation operation using an affinity column to which an oligopeptide corresponding to amino acid residues of 517-530 of Asc-1 was bound in order to obtain an affinity-purified antibody having a protein content of 0.5 mg/ml. As for immunopathological examination, paraffin rat […] diluted with PBS to the optimal concentration was used.
# The immune tissue staining was performed based on the protocol of Ventana HX system bench mark (Ventana Japan K.K., Tokyo) including the automated immunostaining device manufactured by Ventana Japan K.K. After deparaffinization, the tissue section was heat-treated at 100° C. for 1 hour. […]
# 4F2hc [3] = experiment: HAT heavy chain 4F2hc on large-monocyte fraction of LPS-stimulated human PBMC, peak value by FACScan (polyclonal antibody); format: cell-based
# Protocol: (§1) In the same manner as in 1) to 5) of Experimental Example 1, to human peripheral blood mononuclear cells, the test compound (6-2) (final concentration: 10 nM) or the test compound (7-3) (final concentration: 100 nM) was added at the same time when LPS (final concentration: 80 μg/ml) was added, followed by 6-day culture. Further, in the same manner as above, using rabbit anti-human 4F2hc polyclonal antibodies (see Biol Pharm Bull 30:415-422, 2007) as a primary antibody, the peak value of HAT expressed on the fraction of large-macrophages (larger than monocyte macrophages) in human PBMC was measured by FACScan using a commercially available cell fix/cell membrane infiltration kit (trade name: BD Cytofix/Cytoperm™ Kit, catalog No. 554714, BD Biosciences).
# (§2) As a control, the one with no test-compound addition was used, and as a rabbit anti-human rBAT (related to b^0,+-type amino acid transporter) polyclonal antibody, the one obtained by coupling a synthesized peptide composed of an amino-terminal of human rBAT (MAEDKSKRDSIEMSMKGC (SEQ ID NO: 2)) and a carboxyl-terminal of mouse b^0,+AT (BAT1) (CHLQMLEWPEKDPE (SEQ ID NO: 3)) to a carrier KLH (keyhole-limpet hemocyanin), and immunizing a rabbit with it.
# FRP-1/CD98/4F2hc = experiment: FACScan of FRP-1/CD98/4F2hc expression on macrophage fraction of LPS-stimulated human PBMC (monoclonal antibodies 4-5-1, 6-1-3, HBJ-127); format: cell-based
# rBAT = experiment: HAT heavy chain rBAT on large-monocyte fraction of LPS-stimulated human PBMC, peak value by FACScan; format: cell-based; settings: human PBMC + LPS 80 μg/ml, 6-day culture; test compound 100 nM; solvent control 37
# Protocol: as §1, §2
# 4F2hc [4] = experiment: 4F2hc on large-cell fraction of LPS-stimulated THP-1, peak value by FACScan; format: cell-based, human
# Protocol: The same procedures as in Experimental Example 2 were taken except the following conditions: human leukemia culture cell line THP-1 was used instead of the human peripheral blood mononuclear cells; the final addition concentration of the test compound (6-2) was set to 100 nM, and the final addition concentration of the test compound (7-3) was set to 1000 nM; and fetal bovine serum was used instead of the human AB serum. The peak value of HAT expressed on the fraction of large-cells in human leukemia culture cell strain THP-1, compared with those not stimulated with LPS, was measured. As a control, the one with no test-compound addition was used, and the peak value of HAT was measured by FACScan using a commercially available cell fix/cell membrane infiltration kit (trade name: BD Cytofix/Cytopem™ Kit, catalog No. 554714, BD Bioscience).
# [5] = group average ± standard deviation
# [6] = individual animal, 30 mg/kg s.c. daily for 21 days, 30 mg/kg
# [7] = individual animal, points: ± 0.5, + 1, ++ 2, +++ 3
# [8] = individual animal, sum of the three scores
# [9] = human PBMC + LPS 80 μg/ml, 6-day culture, test compound 100 nM
SMILES,"Glomerular lesion: number of lesioned glomeruli per 50 glomeruli, expansion of tubular pole associated with swollen Bowman's capsule epithelial cells [2, 5] [per 50 glomeruli]","Glomerular lesion: number of lesioned glomeruli per 50 glomeruli, hypertrophy of Bowman's capsule basal membrane [2, 5] [per 50 glomeruli]","Number of Asc-1+ cells per 50 glomeruli [2, 5] [per 50 glomeruli]","Tubulointerstitial lesion: atrophy of tubules associated with dilatation of tubules (score) [2, 5]","Tubulointerstitial lesion: fibrosis of interstitial tissue (score) [2, 5]","Tubulointerstitial lesion: thickness of basement membrane (score) [2, 5]","Tubulointerstitial lesion: total score [2, 5]","Glomerular lesion: number of lesioned glomeruli per 50 glomeruli, expansion of tubular pole associated with swollen Bowman's capsule epithelial cells [2, 6]","Glomerular lesion: number of lesioned glomeruli per 50 glomeruli, hypertrophy of Bowman's capsule basal membrane [2, 6]","Number of Asc-1+ cells per 50 glomeruli [2, 6]",Improvement of glomerular lesion ([2]; individual animal),Improvement of tubulointerstitial lesion ([2]; individual animal),"Tubulointerstitial lesion: atrophy of tubules associated with dilatation of tubules (score) [2, 7]","Tubulointerstitial lesion: fibrosis of interstitial tissue (score) [2, 7]","Tubulointerstitial lesion: thickness of basement membrane (score) [2, 7]","Tubulointerstitial lesion: total score [2, 8]",known action on renal tubulointerstitial lesions [1],also measured
C[C@@H](OC[C@@]1(Oc2ccc(F)cc2)CCC(=O)O1)c1ccc2ccccc2c1 [(3-2)],6 ± 3,6 ± 1,11.06 ± 3.51,2.6 ± 0.9,2.2 ± 0.4,2.2 ± 0.4,7.0 ± 1.2,10 per 50 glomeruli and 6 per 50 glomeruli (2×) and 5 per 50 glomeruli and 3 per 50 glomeruli,6 per 50 glomeruli and 5 per 50 glomeruli (2×) and 8 per 50 glomeruli and 7 per 50 glomeruli,9.48 per 50 glomeruli and 9.55 per 50 glomeruli and 14.91 per 50 glomeruli and 6.84 per 50 glomeruli and 14.52 per 50 glomeruli,Yes,No,3 (4×) and 1,2 (4×) and 3,2 (4×) and 3,7 (2×) and 8 (2×) and 5,,known action on glomerular lesions [1]: selectively inhibit the glomerular lesions
C[C@@H](OC[C@]1(Oc2ccc(F)cc2)CCC(=O)O1)c1ccc2ccccc2c1 [(4-2)],11 ± 6,18 ± 9,4.03 ± 3.06,1.0 ± 0,1.5 ± 0.6,0.9 ± 0.3,3.4 ± 0.5,16 per 50 glomeruli (2×) and 6 per 50 glomeruli and 7 per 50 glomeruli,29 per 50 glomeruli and 9 per 50 glomeruli and 20 per 50 glomeruli and 13 per 50 glomeruli,1.81 per 50 glomeruli and 7.39 per 50 glomeruli and 5.83 per 50 glomeruli and 1.10 per 50 glomeruli,No (2×) and Yes (2×),No and Yes (3×),1,2 (2×) and 1 (2×),1 (3×) and 0.5,4.0 and 3.5 and 3.0 (2×),selectively inhibit the renal tubulointerstitial lesions,
O=C1OC(Cl)(C(=O)OCc2ccccc2)c2ccccc21 (stereo not shown) [Compound (7-3)],5 ± 3,14 ± 5,0.90 ± 0.47,0.50 ± 0.4,0.5 ± 0,0.4 ± 0.3,1.4 ± 0.6,9 per 50 glomeruli and 1 per 50 glomeruli and 6 per 50 glomeruli and 4 per 50 glomeruli,20 per 50 glomeruli and 10 per 50 glomeruli and 16 per 50 glomeruli and 11 per 50 glomeruli,1.35 per 50 glomeruli and 0.47 per 50 glomeruli and 1.27 per 50 glomeruli and 0.53 per 50 glomeruli,No (2×) and Yes (2×),,0.5 (2×) and 0 and 1,0.5,0.5 (3×) and 0,1.5 (2×) and 0.5 and 2,selectively inhibit the renal tubulointerstitial lesions,"Change in HAT expressed on large-monocyte fraction of human PBMC (peak value by FACScan), 4F2hc (4F2hc [3]; human PBMC + LPS 80 μg/ml, 6-day culture, test compound 100 nM, solvent control 23): 20; amount of 4F2hc in the heavy chain of HAT (in words) (4F2hc [3]; human PBMC + LPS, summary of Table 2): did not show any effects; Migration of FRP-1/CD98/4F2hc expression of macrophage fraction by FACScan (migration rate %), monoclonal antibody 4-5-1 (FRP-1) (FRP-1/CD98/4F2hc; [9]): 2.6%; Migration of FRP-1/CD98/4F2hc expression of macrophage fraction by FACScan (migration rate %), monoclonal antibody 6-1-3 (FRP-1) (FRP-1/CD98/4F2hc; [9]): 2.0%; Migration of FRP-1/CD98/4F2hc expression of macrophage fraction by FACScan (migration rate %), monoclonal antibody HBJ-127 (CD98) (FRP-1/CD98/4F2hc; [9]): 5.4%; expression of FRP-1/CD98/4F2hc on macrophage fraction of human PBMC (in words) (FRP-1/CD98/4F2hc; stimulated and cultured with LPS, summary of Table 1): did not increase the expression; Change in HAT expressed on large-monocyte fraction of human PBMC (peak value by FACScan), rBAT (rBAT): 38; Change in HAT expressed on large-cell fraction of THP-1 (peak value by FACScan), 4F2hc (4F2hc [4]; THP-1 + LPS 80 μg/ml, fetal bovine serum, test compound 1000 nM, solvent control 12): 11; amount of 4F2hc in the heavy chain of HAT (in words) (4F2hc [4]; THP-1 + LPS, summary of Table 3): did not make any change; amelioration / reduction of tubulointerstitial lesions, rats of the group ([2]; control group: one rat out of four): all of four rats; Asc-1 positive cells in the glomeruli (in words) ([2]; versus control group): only a small number"
